Experimental data reported in patent publication US20070142437A1, “CHEMICAL COMPOUNDS” (priority 2005, published 2007).

Assays:
Format in all cases: biochemical
[1] = target: T1, CDK4 (Homo sapiens, UniProt P11802); assay: CDK4 substrate phosphorylation assay (Rb protein, 33P-ATP); conditions: Inhibition of CDK4
T1 construct: made in house
Protocol: (§1) The compounds of the present invention have valuable pharmacologic properties. Different compounds from this class are particularly effective at inhibiting CDK2 and/or CDK4 enzymes at concentrations, which range from 0.0001 to 1 μM and additionally show specificity relative to other kinases. Substrate phosphorylation assays were carried out as follows:
Cyclin D1 and cyclin-dependent kinase 4 were expressed utilizing a baculovirus expression system. The catalytic activity of CDK4 protein was assayed by measuring the phosphorylation of Rb protein. A truncated Rb protein (residues 773-928 of the native retinoblastoma protein, fused to glutathione S-transferase to facilitate purification) was used as the phosphoryl acceptor. The assay conditions were 100 mM HEPES (N-[2-hydroxyethyl]piperzine-N′-[2-ethanesulfonic acid]), pH 7.5, 0.5 μM GST-Rb protein, 1 μCi/mL [^33P]-ATP (1 nM-20 μM), 5-20 mM MgCl2, 2.5 mM EDTA, 1 mM dithiotheitol, 0.2 mg/mL bovine serum albumin, 2% (v/v) dimethyl sulfoxide (DMSO), CDK4 enzyme (5-50 nM) in a final volume of 50 μL. Reactions were incubated for time periods of 10-60 min at 30° C. and terminated by the addition of 50 μL quench (1 mM ATP/100 mM EDTA, pH 7.0). Detection of protein phosphorylation was accomplished by scintillation counting following collection of protein in 96 well plates coated with Glutathione or trapping of protein onto phosphocellulose filters. Counts detected by these methodologies minus the appropriate background were assumed to be proportional to the reaction initial rates. IC50 values were determined by measuring enzyme activity in the presence of different inhibitor concentrations (0.1 nM to 50 μM). IC50s were determined by a least squares fit to the equation CPM=Vmax*(1−([I]/(K+[I])))+nsb, or pIC50s were determined by a fit to the equation CPM=nsb+(Vmax−nsb)/(1+(x/10^x−pIC50)), where nsb are the background counts.

[2] = target: hVEGFR2 (Homo sapiens, UniProt P35968); assay: VEGFR2 HTRF assay; conditions: Inhibition of VEGFR2
Protocol: The compounds of the present invention elicit important and measurable pharmacological responses. Different compounds from this class are particularly effective at inhibiting VEGFR2 enzymes, as described by the VEGFR2 HTRF assay below, at concentrations, which range from 0.0001 to 1 μM.
The assays were performed in 96-well black plates. 10 nM hVEGFR2 was used to phosphorylate 0.36 μM peptide (Biotin-Ahx-EEEEYFELVAKKKK) in the presence of 75 μM ATP, 5 mM MgCl2, 0.3 mM DTT, 0.1 mg/ml BSA, and 0.1 M HEPES (pH 7.5). 10 μl 0.5 M EDTA was added to reactions as negative controls. The 50 μl kinase reaction with or without inhibitors in 5% DMSO was carried out at room temperature for 45 minutes, then stopped by 40 μl of 125 mM EDTA. 2.4 μg/ml Streptavidin-APC and 0.15 μg/ml Eu-α-pY, in the presence of 0.1 mg/ml BSA, 0.1 M HEPES (pH7.5), were added to a final volume of 140 μl. The plate was incubated for 10 min at room temperature (22° C.) and read on the Victor with the time resolved fluorescence mode by exciting at 340 nm and reading the emission at 665 nm.
• Peptide from Synpep (Dublin, Calif.) • ATP, MgCl2, DTT, BSA, HEPES, EDTA, DMSO from Sigma Streptavidin-APC from Molecular Probes (Eugene, Oreg.) • Eu-α-pY from EG&G Wallac (Gaithersburg, Md.)

[3] = target: T2, CDK2 (Homo sapiens, UniProt P24941); assay: CDK2 substrate phosphorylation assay (biotinylated peptide, 32P-ATP); conditions: Inhibition of CDK2
T2 construct: made in house
Protocol: as §1
Cyclin dependent protein kinase 2 assays utilized the peptide Biotin-aminohexyl-ARRPMSPKKKA-NH2 as phosphoryl group acceptor. CDK2 was expressed utilizing a baculovirus expression system and was partially purified to comprise 20-80% of total protein, with no detectable competing reactions present. Typically, assays were performed by incubating enzyme (0.2-10 nM), with and without inhibitor, peptide substrate (1-10 nM), [g-^32P]ATP (1-20 nM), and 10-20 mM Mg^2+ for periods of time generally within the range 10-120 minutes. Reactions were terminated with 0.2-2 volumes of either 20% acetic acid or 50-100 mM EDTA buffered to pH 7 (substrate consumption <20%). The buffer employed in enzyme assay was 100 mM HEPES pH 7.5 containing 0.1 mg/mL BSA and 5% DMSO. Inhibitors were diluted in 100% DMSO prior to addition into the assay. Detection of peptide phosphorylation was accomplished by scintillation counting following either collection of peptide onto phosphocellulose filters (for reactions stopped with acetic acid), collection of peptide in wells of 96 well plates coated with Streptavidin (Pierce) (reactions were stopped with EDTA), or addition of Avidin coated Scintillant impregnated beads (Scintillation Proximity Assays from Amersham, reactions were stopped with EDTA). Counts detected by any of these methodologies minus the appropriate background (assays with additional 40 mM EDTA or lacking peptide substrate) were assumed to be proportional to the reaction initial rates, and IC50s were determined by a least squares fit to the equation CPM=Vmax*(1−([I]/(K+[I])))+nsb, or −pIC50s were determined by a fit to the equation CPM=nsb+(Vmax−nsb)/(1+(x/10^x−pIC50)), where nsb are the background counts. Filters are washed four times with 75 mM phosphoric acid. Radioactivity was determined by liquid scintillation counting.

Sequence of hVEGFR2 (P35968 20-1356): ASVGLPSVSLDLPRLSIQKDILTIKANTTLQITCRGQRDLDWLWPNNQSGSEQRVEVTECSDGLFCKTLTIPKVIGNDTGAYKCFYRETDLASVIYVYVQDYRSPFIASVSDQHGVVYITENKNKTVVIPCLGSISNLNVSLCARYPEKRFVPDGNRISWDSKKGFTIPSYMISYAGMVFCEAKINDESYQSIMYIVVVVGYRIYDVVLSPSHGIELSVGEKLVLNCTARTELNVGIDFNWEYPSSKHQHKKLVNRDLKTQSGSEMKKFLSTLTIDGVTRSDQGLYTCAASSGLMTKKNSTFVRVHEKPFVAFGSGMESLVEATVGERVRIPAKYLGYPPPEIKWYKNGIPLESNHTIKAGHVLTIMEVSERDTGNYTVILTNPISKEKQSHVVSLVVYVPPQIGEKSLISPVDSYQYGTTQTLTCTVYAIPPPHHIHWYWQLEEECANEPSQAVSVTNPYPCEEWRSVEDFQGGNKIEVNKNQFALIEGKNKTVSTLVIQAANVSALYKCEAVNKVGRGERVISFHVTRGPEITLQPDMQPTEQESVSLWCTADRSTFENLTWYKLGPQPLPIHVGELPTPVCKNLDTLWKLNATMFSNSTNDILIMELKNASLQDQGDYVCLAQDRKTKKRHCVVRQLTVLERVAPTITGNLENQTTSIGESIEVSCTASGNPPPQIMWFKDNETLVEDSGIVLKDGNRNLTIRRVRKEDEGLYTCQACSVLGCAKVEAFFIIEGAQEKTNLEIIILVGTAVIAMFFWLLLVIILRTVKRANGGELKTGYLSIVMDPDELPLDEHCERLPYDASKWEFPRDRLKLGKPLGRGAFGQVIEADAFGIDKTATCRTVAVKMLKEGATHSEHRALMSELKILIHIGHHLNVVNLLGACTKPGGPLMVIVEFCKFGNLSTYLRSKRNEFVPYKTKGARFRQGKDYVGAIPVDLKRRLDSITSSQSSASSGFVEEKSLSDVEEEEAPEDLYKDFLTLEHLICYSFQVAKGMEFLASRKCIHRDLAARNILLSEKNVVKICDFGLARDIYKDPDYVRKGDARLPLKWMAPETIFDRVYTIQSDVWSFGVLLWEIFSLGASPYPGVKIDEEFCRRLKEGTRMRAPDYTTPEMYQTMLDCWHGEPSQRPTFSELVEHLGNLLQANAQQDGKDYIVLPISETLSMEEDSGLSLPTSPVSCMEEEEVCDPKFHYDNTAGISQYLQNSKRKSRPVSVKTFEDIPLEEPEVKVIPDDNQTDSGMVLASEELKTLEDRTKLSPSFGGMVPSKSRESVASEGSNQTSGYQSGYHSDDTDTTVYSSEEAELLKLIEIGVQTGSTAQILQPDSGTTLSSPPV
T1 sequence (P11802 whole entry, species assumed): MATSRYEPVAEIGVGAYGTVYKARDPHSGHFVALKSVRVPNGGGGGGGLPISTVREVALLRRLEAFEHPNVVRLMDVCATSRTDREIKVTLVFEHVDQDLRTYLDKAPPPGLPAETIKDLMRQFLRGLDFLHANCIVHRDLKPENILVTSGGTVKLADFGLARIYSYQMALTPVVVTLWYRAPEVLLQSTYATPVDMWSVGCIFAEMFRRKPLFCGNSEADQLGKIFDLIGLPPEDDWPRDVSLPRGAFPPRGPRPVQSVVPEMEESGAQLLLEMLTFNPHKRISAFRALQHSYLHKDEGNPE
T1 sequence (P24385 whole entry partner, species assumed): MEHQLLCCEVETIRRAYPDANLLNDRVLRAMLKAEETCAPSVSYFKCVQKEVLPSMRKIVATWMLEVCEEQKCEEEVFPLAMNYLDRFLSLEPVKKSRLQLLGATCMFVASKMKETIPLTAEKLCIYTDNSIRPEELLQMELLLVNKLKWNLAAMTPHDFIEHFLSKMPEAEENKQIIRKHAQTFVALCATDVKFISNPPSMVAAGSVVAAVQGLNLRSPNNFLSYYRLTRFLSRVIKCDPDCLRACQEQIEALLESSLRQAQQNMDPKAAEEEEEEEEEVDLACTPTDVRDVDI

## COc1cccc(-c2cnc(Nc3ccc(CCN(C)C)cc3)o2)c1 [Example 42]
[1]
  IC50: < 100 nM
[2]
  IC50: < 1000 nM
[3]
  IC50: < 1000 nM

## COc1cccc(-c2cnc(Nc3ccc(C(=O)N4CCN(C)CC4)cc3)o2)c1 [Example 47, 5-(3-methoxyphenyl)-N-{4-[(4-methylpiperazin-1-yl)carbonyl]phenyl}-1,3-oxazol-2-amine]
[1]
  IC50: < 1000 nM
[2]
  IC50: < 1000 nM
[3]
  IC50: < 1000 nM

## C=C(C)COc1cccc(-c2cnc(Nc3ccc(N4CCN(C)CC4)cc3)o2)c1 [Example 16, N-[4-(4-methylpiperazin-1-yl)phenyl]-5-{3-[(2-methylprop-2-enyl)oxy]phenyl}-1,3-oxazol-2-amine]
[1]
  IC50: < 100 nM
[2]
  IC50: < 1000 nM
[3]
  IC50: < 100 nM

## CCN(CC)c1ccc(Nc2ncc(-c3cccc(OC4CCCC4)c3)o2)cn1 [Example 36, N^5-{5-[3-(cyclopentyloxy)phenyl]-1,3-oxazol-2-yl}-N^2,N^2-diethylpyridine-2,5-diamine]
[1]
  IC50: < 1000 nM
[2]
  IC50: < 10000 nM
[3]
  IC50: < 1000 nM

## CN(C)Cc1ccc(Nc2ncc(-c3cccc(OC4CCCC4)c3)o2)cc1 [Example 41, 5-[3-(cyclopentyloxy)phenyl]-N-{4-[(dimethylamino)methyl]phenyl}-1,3-oxazol-2-amine]
[1]
  IC50: < 100 nM
[2]
  IC50: < 1000 nM

## CCN(CC)CCNC(=O)c1ccc(Nc2ncc(-c3cccc(OC4CCCC4)c3)o2)cc1 [Example 48, 4-({5-[3-(cyclopentyloxy)phenyl]-1,3-oxazol-2-yl}amino)-N-[2-(diethylamino)ethyl]benzamide]
[1]
  IC50: < 100 nM
[2]
  IC50: < 1000 nM
[3]
  IC50: < 1000 nM

## CCN(CC)Cc1ccc(Nc2ncc(-c3cccc(OC)c3)o2)cc1 [Example 45, N-{4-[(diethylamino)methyl]phenyl}-5-(3-methoxyphenyl)-1,3-oxazol-2-amine]
[1]
  IC50: < 100 nM
[2]
  IC50: < 1000 nM
[3]
  IC50: < 1000 nM

## CN1CCN(c2ccc(Nc3ncc(-c4ccccc4)o3)cc2)CC1 [Example 3, N-[4-(4-methylpiperazin-1-yl)phenyl]-5-phenyl-1,3-oxazol-2-amine]
[1]
  IC50: < 1000 nM
[2]
  IC50: < 1000 nM
[3]
  IC50: < 10000 nM

## CCN1CCN(c2ccc(Nc3ncc(-c4ccccc4)o3)cc2)CC1 [Example 7, N-[4-(4-Ethylpiperazin-1-yl)phenyl]-5-phenyl-1,3-oxazol-2-amine]
[1]
  IC50: < 1000 nM
[2]
  IC50: < 1000 nM
[3]
  IC50: < 10000 nM

## CCCN1CCC(c2csc(Nc3ncc(-c4cccc(OC)c4)o3)n2)CC1 [Example 49, 5-(3-methoxyphenyl)-N-[4-(1-propylpiperidin-4-yl)-1,3-thiazol-2-yl]-1,3-oxazol-2-amine]
[1]
  IC50: < 1000 nM

## CC(C)Oc1cccc(-c2cnc(Nc3ccc(N4CCN(C)CC4)cc3)o2)c1 [Example 12, 5-(3-Isopropoxyphenyl)-N-[4-(4-methylpiperazin-1-yl)phenyl]-1,3-oxazol-Z -amine]
[1]
  IC50: < 100 nM
[2]
  IC50: < 1000 nM
[3]
  IC50: < 100 nM

## CN1CCN(c2ccc(Nc3ncc(-c4cccc(OC5CCCCC5)c4)o3)cc2)CC1 [Example 18, 5-[3-(cyclohexyloxy)phenyl]-N-[4-(4-methylpiperazin-1-yl)phenyl]-1,3-oxazol-2-amine]
[1]
  IC50: < 100 nM
[2]
  IC50: < 1000 nM
[3]
  IC50: < 100 nM

## CN1CCN(c2ccc(Nc3ncc(-c4cccc(OC5CCCC5)c4)o3)cc2C(F)(F)F)CC1 [Example 25, 5-[3-(Cyclopentyloxy)phenyl]-N-[4-(4-methylpiperazin-1-yl)-3-(trifluoromethyl)phenyl]-1,3-oxazol-2-amine]
[1]
  IC50: < 100 nM
[2]
  IC50: < 1000 nM
[3]
  IC50: < 100 nM

## COc1cccc(-c2cnc(Nc3ccc(N4CCCCC4)nc3)o2)c1 [Example 33, N-[5-(3-methoxyphenyl)-1,3-oxazol-2-yl]-6-piperdin-1-ylpyridin-3-amine]
[1]
  IC50: < 10000 nM

## CN1CCN(c2ccc(Nc3ncc(-c4cccc(OC5CCCC5)c4)o3)cc2)CC1 [Example 13, 5-[3-(cyclopentyloxy)phenyl]-N-[4-(4-methylpiperazin-1-yl)phenyl]-1,3-oxazol-2-amine]
[1]
  IC50: < 100 nM
[2]
  IC50: < 100 nM
[3]
  IC50: < 100 nM

## COc1cccc(-c2cnc(Nc3ccc(CN4CCCCC4)cc3)o2)c1 [Example 43, 5-(3-methoxyphenyl)-N-[4-(piperidin-1-ylmethyl)phenyl]-1,3-oxazol-2-amine]
[1]
  IC50: < 100 nM
[2]
  IC50: < 1000 nM
[3]
  IC50: < 1000 nM

## Cc1cc(Nc2ncc(-c3cccc(OC4CCCC4)c3)o2)ccc1N1CCN(C)CC1 [Example 27, 5-[3-(cyclopentyloxy)phenyl]-N-[3-methyl-4(4-methylpiperazin-1-yl)phenyl]-1,3-oxazol-2-amine]
[1]
  IC50: < 100 nM
[2]
  IC50: < 100 nM
[3]
  IC50: < 100 nM

## CN1CCN(Cc2ccc(Nc3ncc(-c4ccccc4)o3)cc2)CC1 [Example 39, N-{4-[(4-methylpiperazin-1-yl)methyl]phenyl}-5-phenyl-1,3-oxazol-2-amine]
[1]
  IC50: < 1000 nM
[2]
  IC50: < 1000 nM
[3]
  IC50: < 1000 nM

## COc1cccc(-c2cnc(Nc3ccc(N4CCN(C)CC4)c(C(F)(F)F)c3)o2)c1 [Example 21, 5-(3-Methoxyphenyl)-N-[4-(4-methylpiperazin-1-yl)-3-(trifluoromethyl)phenyl]-1,3-oxazol-2-amine]
[1]
  IC50: < 100 nM
[2]
  IC50: < 1000 nM
[3]
  IC50: < 1000 nM

## CN1CCN(c2ccc(Nc3ncc(-c4cccc(OC5CCCC5)c4)o3)cc2F)CC1 [Example 28, 5-[3-(Cyclopentyloxy)phenyl]-N-[3-fluoro-4-(4-methylpiperazin-1-yl)phenyl]-1,3-oxazol-2-amine]
[1]
  IC50: < 100 nM
[2]
  IC50: < 100 nM
[3]
  IC50: < 100 nM

## CCN(CC)c1ccc(Nc2ncc(-c3cccc(OC)c3)o2)cn1 [Example 35, N^2,N^2-diethyl-N^5-[5-(3-methoxyphenyl)-1,3-oxazol-2-yl]pyridine-2,5-diamine]
[1]
  IC50: < 10000 nM
[2]
  IC50: < 10000 nM
[3]
  IC50: < 10000 nM

## CN1CCN(c2ccc(Nc3ncc(-c4cccc(O)c4)o3)cc2)CC1 [Example 29, 3-(2-{[4-(4-methylpiperazin-1-yl)phenyl]amino}-1,3-oxazol-5-yl)phenol]
[1]
  IC50: < 100 nM
[2]
  IC50: < 1000 nM

## COc1cccc(-c2cnc(Nc3ccc(N4CCCCC4)cc3)o2)c1 [Example 10, 5-(3-Methoxyphenyl)-N-(4-piperidin-1-ylphenyl)-1,3-oxazol-2-amine]
[1]
  IC50: < 10000 nM
[2]
  IC50: < 1000 nM

## COc1cccc(-c2cnc(Nc3ccc(-n4ccnc4)nc3)o2)c1 [Example 32, 6-(1H-imidazol-1-yl)-N-[5-(3-methoxyphenyl)-1,3-oxazol-2-yl]pyridin-3-amine]
[1]
  IC50: < 10000 nM
